{"source": "patent US12692249B2", "about": "“WDR5 inhibitors and modulators” (Vanderbilt University, priority 2019, dated 2026)", "key": {"WDR5": {"target": "WDR5 (Homo sapiens, UniProt P61964)", "experiment": "TR-FRET competition binding assay, displacement of 10mer-Thr-FAM MLL peptide probe from His-tagged WDR5", "settings": "WDR5-His tag (residues 24-334) 2 nM; 10mer-Thr-FAM 150 nM; 60 min, room temperature; read-out: Ki for Inhibition of WDR5 by TR-FRET assay"}, "[1]": {"system": "MV4:11 human cancer cell lines", "experiment": "Cellular viability / anti-proliferative assay, CellTiter-Glo, 5 day protocol", "format": "cell-based", "settings": "Homo sapiens, MV4-11, 120 h, MV4:11 cells; 5 day incubation; CellTiter-Glo; mean of at least two replicates; read-out: GI50 on cellular proliferation of MV4:11 human cancer cell lines", "in_short": "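MV-4-11 cells in IMDM with 10% FBS, 200 cells/well, exposed 5 days to 22 two-fold dilutions from 30 μM, final DMSO 0.3%. Viability read by CellTiter-Glo luminescence; GI50 from sigmoidal dose-response fit, mean of at least two replicates.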"}}}
{"compound": "CCc1cc(COC)c2nc(C)cc(N3CCc4c(cc(Cn5ccnc5)cc4-c4cn(C)nc4C(F)(F)F)C3=O)c2c1", "note": "[Example 156, 7-((1H-Imidazol-1-yl)methyl)-2-(6-ethyl-8-(methoxymethyl)-2-methylquinolin-4-yl)-5-(1-methyl-3-(trifluoromethyl)-1H-pyrazol-4-yl)-3,4-dihydroisoquinolin-1(2H)-one]", "values": [{"measurement": "Ki", "setting": "WDR5", "result": 0.02, "unit": "nM"}, {"measurement": "GI50", "setting": "[1]", "result": 28, "unit": "nM"}]}
{"compound": "Cc1ccc2cncc(N3CCc4c(cc(Cn5ccnc5C)cc4-c4cn(C)nc4C(F)(F)F)C3=O)c2c1", "note": "[Example 10, 6′-Methyl-7-((2-methyl-1H-imidazol-1-yl)methyl)-5-(1-methyl-3-(trifluoromethyl)-1H-pyrazol-4-yl)-3,4-dihydro-1H-[2,4′-biisoquinolin]-1-one]", "values": [{"measurement": "Ki", "setting": "WDR5", "result": 0.029, "unit": "nM"}, {"measurement": "GI50", "setting": "[1]", "result": "< 20", "unit": "nM"}]}
{"compound": "COc1cnc2cc(C)cc(N3CCc4c(cc(Cn5ccnc5N)cc4-c4cn(C)nc4C(F)(F)F)C3=O)c2c1", "note": "[Example 221, 7-((2-Amino-1H-imidazol-1-yl)methyl)-2-(3-methoxy-7-methylquinolin-5-yl)-5-(1-methyl-3-(trifluoromethyl)-1H-pyrazol-4-yl)-3,4-dihydroisoquinolin-1(2H)-one]", "values": [{"measurement": "Ki", "setting": "WDR5", "result": 0.024, "unit": "nM"}, {"measurement": "GI50", "setting": "[1]", "result": "< 20", "unit": "nM"}]}
{"compound": "CCc1cc(N2CC(=O)N(C)C2)c2nc(C)cc(N3CCc4c(cc(Cn5ccnc5)cc4-c4cn(C)nc4C(F)(F)F)C3=O)c2c1", "note": "[Example 113, 7-((1H-Imidazol-1-yl)methyl)-2-(6-ethyl-2-methyl-8-(3-methyl-4-oxoimidazolidin-1-yl)quinolin-4-yl)-5-(1-methyl-3-(trifluoromethyl)-1H-pyrazol-4-yl)-3,4-dihydroisoquinolin-1(2H)-one]", "values": [{"measurement": "Ki", "setting": "WDR5", "result": 0.023, "unit": "nM"}, {"measurement": "GI50", "setting": "[1]", "result": "< 20", "unit": "nM"}]}
{"compound": "CCc1cc(C(=O)Nc2ccncc2)c2nccc(N3CCc4c(cc(Cn5ccnc5)cc4-c4cn(C)nc4C(F)(F)F)C3=O)c2c1", "note": "[Example 158, 4-(7-((1H-Imidazol-1-yl)methyl)-5-(1-methyl-3-(trifluoromethyl)-1H-pyrazol-4-yl)-1-oxo-3,4-dihydroisoquinolin-2(1H)-yl)-6-ethyl-N-(pyridin-4-yl)quinoline-8-carboxamide]", "values": [{"measurement": "Ki", "setting": "WDR5", "result": "< 0.02", "unit": "nM"}, {"measurement": "GI50", "setting": "[1]", "result": 31, "unit": "nM"}]}
{"compound": "CCc1cc(F)c2cncc(N3CCc4c(cc(Cn5ccnc5)cc4-c4cn(C)nc4C(F)(F)F)C3=O)c2c1", "note": "[Example 115, 7-((1H-Imidazol-1-yl)methyl)-6′-ethyl-8′-fluoro-5-(1-methyl-3-(trifluoromethyl)-1H-pyrazol-4-yl)-3,4-dihydro-1H-[2,4′-biisoquinolin]-1-one]", "values": [{"measurement": "Ki", "setting": "WDR5", "result": 0.031, "unit": "nM"}, {"measurement": "GI50", "setting": "[1]", "result": 40, "unit": "nM"}]}
{"compound": "CCc1cc(C(=O)NC2CN(C(=O)c3cscn3)C2)c2nccc(N3CCc4c(cc(Cn5ccnc5)cc4-c4cn(C)nc4C(F)(F)F)C3=O)c2c1", "note": "[Example 228, 4-(7-((1H-Imidazol-1-yl)methyl)-5-(1-methyl-3-(trifluoromethyl)-1H-pyrazol-4-yl)-1-oxo-3,4-dihydroisoquinolin-2(1H)-yl)-6-ethyl-N-(1-(thiazole-4-carbonyl)azetidin-3-yl)quinoline-8-carboxamide]", "values": [{"measurement": "Ki", "setting": "WDR5", "result": "< 0.02", "unit": "nM"}, {"measurement": "GI50", "setting": "[1]", "result": "< 20", "unit": "nM"}]}
{"compound": "COc1cc(CN2CCCC2)c2nccc(N3CCc4c(cc(Cn5ccnc5)cc4-c4cn(C)nc4C(F)(F)F)C3=O)c2c1", "note": "[Example 138, 7-((1H-Imidazol-1-yl)methyl)-2-(6-methoxy-8-(pyrrolidin-1-ylmethyl)quinolin-4-yl)-5-(1-methyl-3-(trifluoromethyl)-1H-pyrazol-4-yl)-3,4-dihydroisoquinolin-1(2H)-one]", "values": [{"measurement": "Ki", "setting": "WDR5", "result": "< 0.02", "unit": "nM"}, {"measurement": "GI50", "setting": "[1]", "result": "< 20", "unit": "nM"}]}
{"compound": "Cc1ccc2cncc(N3CCc4c(cc(Cc5ncc[nH]5)cc4-c4cn(C)nc4C(F)(F)F)C3=O)c2c1", "note": "[Example 56, 7-((1H-Imidazol-2-yl)methyl)-6′-methyl-5-(1-methyl-3-(trifluoromethyl)-1H-pyrazol-4-yl)-3,4-dihydro-1H-[2,4′-biisoquinolin]-1-one]", "values": [{"measurement": "Ki", "setting": "WDR5", "result": 0.031, "unit": "nM"}, {"measurement": "GI50", "setting": "[1]", "result": 97, "unit": "nM"}]}
